The source of these data is article PMC6606608, “Chemical logic of MraY inhibition by antibacterial nucleoside natural products” (Nature Communications, 2019).

Read-outs that look alike come from different tables or passages of the source.

The target of test [1] is T1, MraYAA (phospho-MurNAc-pentapeptide translocase, MraY) (Aquifex aeolicus, UniProt O66465).
T1 construct: Codon-optimized His-MBP-PreScission fusion, E. coli C41(DE3), DDM-extracted, tag cleaved; IC50 on MraYAA alone (NB7 only in crystals)
T1 sequence (O66465 1-359): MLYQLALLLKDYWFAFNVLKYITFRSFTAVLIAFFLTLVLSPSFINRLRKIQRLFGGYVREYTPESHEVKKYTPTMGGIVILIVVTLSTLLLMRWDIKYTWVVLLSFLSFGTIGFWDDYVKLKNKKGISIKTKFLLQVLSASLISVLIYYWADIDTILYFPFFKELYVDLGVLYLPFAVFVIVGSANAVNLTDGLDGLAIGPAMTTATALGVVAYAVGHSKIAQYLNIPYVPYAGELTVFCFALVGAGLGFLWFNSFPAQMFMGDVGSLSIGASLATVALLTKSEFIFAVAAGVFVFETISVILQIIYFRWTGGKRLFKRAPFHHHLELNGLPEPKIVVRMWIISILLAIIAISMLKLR
In words: X-ray crystal structure ([…] Å); UMP-Glo enzyme inhibition IC50. The format is biochemical.

The target in test [2] is T1, MraYAA (phospho-MurNAc-pentapeptide translocase, MraY). Described as above. The format is biochemical. The source holds these as a separate data set.

In test [1], `CSCC[C@H](NC(=O)N[C@@H](Cc1cccc(O)c1)C(=O)O)C(=O)N[C@H](C(=O)N/C=C1/O[C@@H](n2ccc(=O)[nH]c2=O)[C@H](O)[C@@H]1O)[C@H](C)N(C)C(=O)[C@@H](N)Cc1cccc(O)c1` [3′-hydroxymureidomycin A] registered an IC50 of 52 nM.

In test [2], `CO[C@H]1[C@@H](O)[C@H](n2ccc(=O)[nH]c2=O)O[C@@H]1[C@@H](O[C@H]1OC(C(=O)N[C@H]2CCCCNC2=O)=C[C@H](O)[C@@H]1O)C(N)=O` [capuramycin] gave an IC50 of 185 nM.

Broadly, the IC50 is the concentration that gives 50% inhibition. A higher IC50 goes with lower potency.
